# Laboratory results published in patent publication US8846951B2 (AbbVie Inc., priority 2009, dated 2014).
# “Also recorded” adds a separate entry of the source.
# Assays:
# [1] = molecular target: T1, 5HT2C receptors (Homo sapiens, UniProt P28335); assay: Human 5-HT2C functional assay in CHO-K1 cells (96-well, calcium, FLIPR); format: cell-based; parameters: expressed in transfected cells; conditions: 5-HT2c agonist activity, CHO-K1 cells stably transfected
# T1 sequence (P28335 33-458): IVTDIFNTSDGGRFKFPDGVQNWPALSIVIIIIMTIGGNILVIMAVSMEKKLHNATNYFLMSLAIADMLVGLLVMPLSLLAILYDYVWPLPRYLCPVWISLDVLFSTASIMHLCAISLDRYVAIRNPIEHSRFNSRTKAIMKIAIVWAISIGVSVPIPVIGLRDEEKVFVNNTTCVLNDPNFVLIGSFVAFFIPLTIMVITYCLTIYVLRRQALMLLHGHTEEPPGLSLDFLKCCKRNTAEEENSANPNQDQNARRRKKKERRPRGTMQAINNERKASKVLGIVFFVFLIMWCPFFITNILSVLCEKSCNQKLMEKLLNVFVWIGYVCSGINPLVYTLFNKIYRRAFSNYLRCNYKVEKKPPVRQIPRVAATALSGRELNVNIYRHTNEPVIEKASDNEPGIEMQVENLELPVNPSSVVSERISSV
# Protocol: (iv) Human 5-HT2C Functional Assay in CHO-K1 Cells
# Functional activity was determined by testing the effect of the compounds on intracellular calcium levels in CHO-K1 cells stably transfected with the human 5-HT2C receptor. Cells were seeded into 96-well plates at 60,000 cells/well and grown overnight in tissue culture medium (UltraCHO™ (Lonza), containing 1% dFCS, 250 μg/mL Zeocin, 400 μg/mL Geneticin) at 37° C. and 5% CO2. Growth medium was replaced by medium without dFCS for overnight incubation. Cells were loaded with a fluorescent calcium-sensitive dye in the presence of probenicid according to the manufacturer's protocol (FLIPR Ca4 Assay kit, Molecular Devices). Serial compound dilutions (final concentrations 10^−10 to 10^−5 M) were added to the cells and the maximum calcium response was determined using a FLIPR instrument (Molecular Devices). Concentration-response curves were fitted using a four-parameter logistic equation (GraphPad Prism). The concentration at which the compound exerts half its maximal effect is named the ‘effective concentration 50’ or ‘EC50’ and is listed in Table 5.
# [2] = molecular target: T2, h-5-HT6 receptor (Homo sapiens, UniProt P50406); assay: Human 5-HT6 receptor radioligand binding assay (HEK293 membranes, [3H]-LSD); conditions: HEK293 membranes expressing h-5-HT6 receptor, 1 nM [3H]-LSD; geometrical mean; read-out: Ki (5-HT6 Agonist Site Radioligand Binding)
# T2 construct: expressed in transfected cells; host or cells: HEK293 cells (membranes)
# Protocol: (v) Human 5-HT6 Receptor Radioligand Binding Assay
# Preparation of Membranes by Ultrasonic Treatment and Differential Centrifugation
# Cells from stable clonal cell lines expressing the corresponding receptor (5-HT6) were washed with PBS (without Ca^++, Mg^++) and harvested in PBS with 0.02% EDTA. The cells were collected by centrifugation at 500 g for 10 minutes at 4° C., washed with PBS and centrifuged (500 g, 10 minutes at 4° C.). The pellets were stored at −80° C. until use. For membrane preparation, the thawed cell pellet was resuspended in ice-cold sucrose buffer (0.25 M sucrose, 10 mM HEPES (pH 7.4), 1 mM phenylmethylsulfonyl fluoride (PMSF) in DMSO, 5 μg/ml Pepstatin-A, 3 mM EDTA, 0.025% Bacitracin) and homogenized with a Branson Sonifier W-250 (Settings: Timer 4; Output Control 3; Duty Cycle constant; 2 to 3 cycles). Cell disruption was checked with the aid of a microscope. Remaining unbroken cells were pelleted at 1,000 g for 10 minutes at 4° C. The sucrose buffer supernatant was then centrifuged at 60,000 g for 1 hour at 4° C. (Beckman Ultracentrifuge XL 80). The pellet was resuspended in 30 mL of ice-cold Tris buffer (20 mM TRIS (pH 7.4), 5 μg/mL Pepstatin A, 0.1 mM PMSF, 3 mM EDTA) by pipetting through a 10 mL serological pipette and centrifuged for 1 hour at 4° C. at 60,000 g. A final resuspension was performed in a small volume of ice-cold Tris buffer (see above) by pressing through a serological pipette followed by ultrasonic treatment with a Branson Sonifier W-250 (Settings: Timer 1; Output Control 3; Duty Cycle constant; 1 cycle). Protein concentration was determined (BCA-Kit; Pierce) and aliquots stored at −80° C. or in liquid nitrogen for long-term storage.
# Receptor Binding Experiments
# All receptor binding experiments were carried out in the corresponding assay buffer in a total volume of 200 μL in the presence of various concentrations of test compound (10^−5 M to 10^−9 M, tenfold serial dilution, duplicate determinations). The assays were terminated by filtration on polyethylenimine (PEI 0.1% or 0.3%) presoaked Packard Unifilter Plates (GF/C or GF/B) with a Tomtec MachIII U 96 well-plate harvester. After the plates had been dried for 2 hours at 55° C. in a drying chamber scintillation cocktail (BetaPlate Scint; PerkinElmer) was added. Radioactivity was measured in a Microbeta Trilux two hours after the addition of the scintillation mixture.
# 5-HT6 Receptor Binding Assay
# HEK293 cells stably expressing the h-5-HT6 receptor (NCBI Reference Sequence XM 001435) were cultured in RPMI1640 medium supplemented with 25 mM HEPES, 10% fetal calf serum and 1-2 mM glutamine. The membrane preparation was performed as described above. […] On the day of the assay, the membranes were thawed, diluted in assay buffer (50 mM Tris-HCl, 5 mM CaCl2, 0.1% ascorbic acid, 10 μM pargyline, pH 7.4) to a concentration of 8 μg protein/assay and homogenized by gentle vortexing. […] Non-specific binding was defined with 1 μM methiothepin. The binding reaction was carried out for 3.5 hours at room temperature. During the incubation, the plates were shaken on a plate shaker at 100 rpm and terminated by filtration on Packard Unifilter GF/C (0.1% PEI) plates, followed by 2 wash cycles with ice-cold 50 mM Tris-HCl, 5 mM CaCl2.
# Data derived from liquid scintillation counting were analyzed by iterative non-linear regression analysis with the use of the Statistical Analysis System (SAS): a program similar to “LIGAND” as described by Munson and Rodbard (Anal. Biochem. 1980, 107, 220-239). Fitting was performed according to formulae described by Feldman (Anal. Biochem. 1972, 48, 317-338). IC50 and Ki values were expressed as geometrical mean.
# [3] = molecular target: T3, 5HT2B receptors (Homo sapiens, UniProt P41595); assay: Human 5-HT2B functional high throughput screening assay in CHO-K1 cells (calcium flux); format: cell-based; conditions: for Emax: CHO-K1; for EC50: EC50, 5-HT2B agonist activity, CHO-K1 cells, calcium flux
# T3 construct: expressed in transfected cells; host or cells: CHO-K1 cells
# Summary of the method: (§1)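 CHO-K1 cells overexpressing human 5-HT2C or 5-HT2B were serum-starved overnight and loaded with Ca4 dye plus 2.5 mM probenecid for 60 min at RT. Calcium flux was read on FLIPR (ex 480/em 530 nm, 25° C) over 3 min after addition of compound, tested from 10 μM in 1:10 steps over 6 points with 0.2% DMSO. EC50 and Emax relative to serotonin came from a 4-parameter logistic fit.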
# [4] = molecular target: T1, 5HT2C receptors; assay: Human 5-HT2C functional high throughput screening assay in CHO-K1 cells (calcium flux); format: cell-based; parameters: expressed in transfected cells; host or cells: CHO-K1 cells; conditions: for Emax: CHO-K1, 5-HT2C, maximum functional response as percentage relative to the effect of serotonin; for EC50: EC50, 5-HT2C agonist activity, CHO-K1 cells, calcium flux
# Summary of the method: as §1
# [5] = system: AMP- or PCP-induced hyperactivity; assay: Psychostimulant (AMP or PCP)-induced hyperlocomotion in mice; format: in vivo, mouse; conditions: for spontaneous activity: after ip test compound, before psychostimulant; for AMP-induced hyperactivity: test compound ip 30 min before d-amphetamine 2.0 mg/kg sc
# Excerpt: (x) Assessment of Effects on Psychostimulant-Induced Hyperlocomotion in Mice
# In both humans and experimental animals amphetamine (AMP) profoundly affects motor activity, sensorimotor function, sleep, attention, aggressive and sexual behaviors, learning and memory, operant behaviors, appetite and food intake. In addition, amphetamine induces psychotic reactions in normal individuals and exacerbates symptoms of schizophrenia in patients. In experimental animals several distinct behaviors are considered to be correlates of amphetamine psychosis. For example, amphetamine-induced hyperactivity in rodents is believed to model the psychotic symptoms of schizophrenia. Reversal of these behaviors is used to predict potential antipsychotic activity of drugs in pre-clinical studies.
# In humans, phencyclidine (PCP) is known to produce a syndrome of behavioral effects which have many characteristics in common with schizophrenia. Therefore, antagonism of PCP effects might be evidence for antipsychotic efficacy of a compound.
# Male NMRI mice (5-week old, Janvier, France) or C57BL/6J mice (6-week old, Janvier, France) were group housed and allowed ad-libitum access to food and water. A 12 hour light/dark cycle was imposed with lights-on period between 0530 and 1730 hours. All testing occurred between 700 and 1300 hours. All procedures were approved by Abbott Institutional Animal Care and Use Committee (USA) or Animal Welfare Officer (Germany) and were conducted in accordance with the National Institutes of Health Guide for Care and Use of Laboratory Animals guidelines and applicable national laws in the facilities accredited by the Association for the Assessment and Accreditation of Laboratory Animal Care.
# On the day of experiment, animals were brought from the animal facility into the experimental room and were allowed to acclimatize for at least 30 minutes. Animals were then placed in the test cages for a habituation period of 60 minutes. The animals were then injected ip with the test compound and returned to the test cage. 30 Minutes later the mice were injected with d-amphetamine (2.0 mg/kg, AMP, Sigma, #A5880, sc) or phencyclidine (2.0 mg/kg, PCP, Sigma, #P3029, sc) Sigma, and returned to the test cages for 90 minutes. Each treatment group consisted of 8-10 animals. The data was acquired by Cage rack Photobeam system (SDI, San Diego Instruments, CA). The analyzed data were: fine movements, ambulations and total movements (fine+ambulations). Data was subjected to one- or two-way distribution-free ANOVA followed by Dunnett's and Tukey's post hoc tests.
# [6] = molecular target: T4, human serotonin 5-HT2c receptor (Homo sapiens, UniProt P28335); assay: Human 5-HT2C receptor radioligand binding assay (agonist site, [125I]DOI); conditions: 5-HT2c agonist site; transfected CHO cell membranes; 0.2 nM [125I](±)DOI
# T4 construct: expressed in transfected cells; host or cells: CHO cells (membrane homogenates)
# T4 sequence (P28335 33-458): T1 sequence (P28335 33-458)
# Protocol: (i) Human 5-HT2C Receptor Radioligand Binding Assay
# Affinity of compounds for the agonist site of the […], receptor in transfected CHO cells was determined in a radioligand binding assay essentially as described by Bryant, H. U., et al., Life Sciences (1996) 59(15), 1259-1268.
# [7] = molecular target: T1, 5HT2C receptors; assay: Human 5-HT2C functional assay in 1321N1 cells (intracellular calcium, FLIPR); format: cell-based; parameters: expressed in transfected cells; host or cells: 1321N1 cells; conditions: 5-HT2c agonist activity, maximum calcium response
# Summary of the method: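 Intracellular calcium (Fluo-4, FLIPR peak response) was measured in stably transfected human 5-HT2C 1321N1 cells after overnight serum-free culture. Compounds were applied at final 10^−10 to 10^−5 M either alone or together with 10^−9 M serotonin. Half-maximal effect concentration was derived by four-parameter logistic fitting.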
# T3 sequence (P41595 whole entry): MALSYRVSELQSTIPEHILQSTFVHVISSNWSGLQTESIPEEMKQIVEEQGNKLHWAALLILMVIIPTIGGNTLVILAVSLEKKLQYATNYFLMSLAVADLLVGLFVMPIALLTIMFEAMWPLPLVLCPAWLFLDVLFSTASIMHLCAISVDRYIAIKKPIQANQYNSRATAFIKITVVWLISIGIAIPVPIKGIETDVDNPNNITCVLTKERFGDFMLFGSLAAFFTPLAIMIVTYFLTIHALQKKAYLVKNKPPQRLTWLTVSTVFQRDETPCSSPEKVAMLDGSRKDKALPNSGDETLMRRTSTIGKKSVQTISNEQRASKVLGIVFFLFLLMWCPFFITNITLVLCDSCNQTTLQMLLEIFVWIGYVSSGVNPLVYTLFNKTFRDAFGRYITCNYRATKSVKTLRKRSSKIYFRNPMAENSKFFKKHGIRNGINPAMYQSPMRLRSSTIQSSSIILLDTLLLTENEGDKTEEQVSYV
# T2 sequence (P50406 whole entry): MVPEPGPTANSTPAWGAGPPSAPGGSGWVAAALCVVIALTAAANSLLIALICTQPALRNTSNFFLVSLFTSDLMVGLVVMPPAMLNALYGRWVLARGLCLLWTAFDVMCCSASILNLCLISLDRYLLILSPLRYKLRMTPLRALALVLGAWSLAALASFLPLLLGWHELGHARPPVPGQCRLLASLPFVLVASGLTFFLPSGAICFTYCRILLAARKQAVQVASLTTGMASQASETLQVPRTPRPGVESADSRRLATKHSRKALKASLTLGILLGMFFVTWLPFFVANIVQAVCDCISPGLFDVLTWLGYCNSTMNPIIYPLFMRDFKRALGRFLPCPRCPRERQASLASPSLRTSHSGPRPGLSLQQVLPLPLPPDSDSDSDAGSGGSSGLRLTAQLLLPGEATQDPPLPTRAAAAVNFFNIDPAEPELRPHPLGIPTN
smiles,measurement,setting,value
"O=S(=O)(c1cccc(F)c1)N1Cc2ccccc2[C@@H]2CN(Cc3ccc(F)cc3)C[C@H]2C1 (relative stereo) [Example 74, Trans-2-(4-fluorobenzyl)-5-(3-fluorophenylsulfonyl)-1,2,3,3a,4,5,6,10b-octahydrobenzo[c]pyrrolo[3,4-e]azepine]",EC50,[1],> 10 µM
same,Ki,[2],9.81 nM
"O=C1NC[C@H]2CNC[C@@H]2c2c(F)cc(F)cc21 [Example 106, (3aR,10bS)-8,10-Difluoro-1,2,3,3a,4,5-hexahydrobenzo[c]pyrrolo[3,4-e]azepin-6(10bH)-one]",Emax,[3],95%
same,EC50,[3],100 nM
same,Emax,[4],> 120%
same,EC50,[4],0.4 nM
same,spontaneous activity,[5],without affecting spontaneous activity
same,AMP-induced hyperactivity,[5],modestly attenuated AMP-induced hyperactivity in mice in a dose dependent manner; also recorded: attenuating the affect of d-amphetamine (AMP)
"O=C1NC[C@H]2CNC[C@@H]2c2ccccc21 [Example 44, (3aR,10bS)-1,2,3,3a,4,5-Hexahydrobenzo[c]pyrrolo[3,4-e]azepin-6(10bH)-one]",Ki,[6],9.5 nM
same,Emax,[3],100%
same,EC50,[3],500 nM
same,EC50,[7],3.02 nM
same,Emax,[4],100%
same,EC50,[4],1 nM
same,spontaneous activity,[5],without affecting spontaneous activity
same,PCP-induced hyperactivity,[5]; test compound ip 30 min before PCP 2.0 mg/kg sc,attenuated PCP-induced hyperactivity in mice significantly and in a dose dependent manner; also recorded: attenuating the affect of phencyclidine (PCP)
"COc1ccc(CN2C[C@H]3CN(S(=O)(=O)c4cccc(F)c4)Cc4ccccc4[C@@H]3C2)cc1 (relative stereo) [Example 73, Trans-5-(3-fluorophenylsulfonyl)-2-(4-methoxybenzyl)-1,2,3,3a,4,5,6,10b-octahydrobenzo[c]pyrrolo[3,4-e]azepine]",EC50,[1],> 1 µM
same,Ki,[2],14.3 nM
"CN1C[C@H]2CNC[C@@H]2c2ccc(F)cc2C1=O [Example 225, (3aR,10bS)-8-Fluoro-5-methyl-1,2,3,3a,4,5-hexahydrobenzo[c]pyrrolo[3,4-e]azepin-6(10bH)-one]",Emax,[3],110%
same,EC50,[3],2000 nM
same,Emax,[4],> 120%
same,EC50,[4],20 nM
same,spontaneous activity,[5],without affecting spontaneous activity
same,AMP-induced hyperactivity,[5],modestly attenuated AMP-induced hyperactivity in mice; also recorded: attenuating the affect of d-amphetamine (AMP)
